Calls of active or inactive are those of the source. The calls are words filed in the database; no cut-off is given here. Starred links: 1 amine or outer side, 2 acyl side, 3 side chain; linkers in the order of their positions; H or OH if unused. Non-standard residues stand in square brackets, D forms with d. Residues, ends and D or L forms follow the SMILES beside them. X1 = NCCCC[C@H](C(=O)[C@H](CO)N[*:1])C(=O)[*:2]
What was measured:
[1] = target: T1, Mu-type opioid receptor (Homo sapiens, UniProt P35372); experiment: Inhibitory activity against non-selective opiate receptor
[2] = target: T1, Mu-type opioid receptor; experiment: Binding affinity towards non-selective opiate receptor
[3] = target: T1, Mu-type opioid receptor; experiment: Binding affinity towards non-selective opiate receptor; NA=Not active
[4] = target: T1, Mu-type opioid receptor; experiment: (§1) Inhibitory activity against non-selective opiate receptor; NA=Not active
[5] = target: T1, Mu-type opioid receptor; experiment: as §1; remark: listed apart in the source

T1 sequence (P35372 whole entry): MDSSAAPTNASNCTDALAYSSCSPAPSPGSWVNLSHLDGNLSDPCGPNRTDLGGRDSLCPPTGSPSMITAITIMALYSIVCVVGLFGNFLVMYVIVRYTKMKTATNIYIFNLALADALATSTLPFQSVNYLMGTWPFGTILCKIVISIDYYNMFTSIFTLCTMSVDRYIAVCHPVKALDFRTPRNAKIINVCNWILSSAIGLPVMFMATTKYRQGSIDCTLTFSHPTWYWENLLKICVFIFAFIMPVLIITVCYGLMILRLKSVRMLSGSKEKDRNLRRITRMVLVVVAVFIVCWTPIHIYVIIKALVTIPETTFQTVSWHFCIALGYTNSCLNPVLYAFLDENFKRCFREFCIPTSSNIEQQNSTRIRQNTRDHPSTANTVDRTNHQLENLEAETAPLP

Which results are given for H-FPSKP-OH?
IC50 [1]: 15 µM; Ki [2]: 7.5 µM

What does the source list for H-INLITRQRY-OH?
Ki [3]: Not Active; NA [4]: inactive

For NCCCC[C@H](C(=O)[C@H](CO)NC(=O)[C@@H]1CCCN1C(=O)[C@@H](N)Cc1ccc(O)cc1)C(=O)N1CCC[C@H]1C(=O)N[C@@H](CC(=O)O)C(=O)O (H-YP[X1]PD-OH), which IC50 [1] is on record?
Its IC50 is 1.8 µM.

And the Ki [2]?
The Ki was 1 µM.

What does the source list for NC(=O)[C@@H]1CCCN1C(=O)[C@H](Cc1ccccc1)NC(=O)[C@@H]1CCCN1C(=O)[C@@H](N)Cc1ccc(O)cc1 [MORPHICEPTIN] (H-YPFP-NH2)?
IC50 [1]: 0.32 µM; Ki [2]: 0.15 µM

For NCCCC[C@H](C(=O)[C@H](CO)NC(=O)[C@@H]1CCCN1C(=O)[C@@H](N)Cc1ccc(O)cc1)C(=O)N1CCC[C@H]1C(=O)N[C@@H](CC(=O)O)C(=O)N[C@@H](CC(N)=O)C(=O)N1CCC[C@H]1C(=O)O (H-YP[X1]PDNP-OH), which IC50 [5] is on record?
The IC50 was “Not Active”.

What about the Ki [3] of the same molecule?
The Ki was “Not Active”.

Which IC50 [1] does the source give for CC[C@H](C)[C@H](NC(=O)[C@H](Cc1ccc(O)cc1)NC(=O)[C@H](Cc1c[nH]cn1)NC(=O)[C@H](CCCN=C(N)N)NC(=O)[C@H](CC(C)C)NC(=O)[C@H](C)NC(=O)[C@@H](N)CO)C(=O)N[C@@H](CC(N)=O)C(=O)N[C@@H](CC(C)C)C(=O)N[C@H](C(=O)N[C@H](C(=O)N[C@@H](CCCN=C(N)N)C(=O)N[C@@H](CCC(N)=O)C(=O)N[C@@H](CCCN=C(N)N)C(=O)N[C@@H](Cc1ccc(O)cc1)C(=O)O)[C@@H](C)O)[C@@H](C)CC here?
Its IC50 is 10 µM.

What about the Ki [2] of the same molecule?
The Ki was 5.1 µM.
